Laboratory results reported in patent US20250382261A1 (The Broad Institute, Inc., priority 2021, published 2025).
Where two headings read alike, the source gives them in different places.

What was measured:
A. baumannii ATCC 17978 [1] = test: Systemic A. baumannii murine infection model; assay type: in vivo, mouse; conditions: for Animals rescued in combination with novobiocin: 10 mg/kg analog + 50 mg/kg novobiocin i.p. 2 h post-infection, endpoint 5 days
Protocol: Mouse infection models. Animal experiments were conducted according to guidelines set by the Canadian Council on Animal Care using protocols approved by the Animal Review Ethics Board at McMaster University under Animal Use Protocol #20-12-43. Before infection, mice were relocated at random from a housing cage to treatment or control cages. No animals were excluded from analyses, and blinding was considered unnecessary. Seven- to nine-week-old female C57BL/6 mice (Charles River) were infected intraperitoneally with ˜2×10^6 CFU of A. baumannii ATCC 17978, with 5% porcine mucin (Sigma-Aldrich). Infections were allowed to establish for 2 h, and treatments were administered intraperitoneally. For the survival study, the clinical endpoint was determined using a five-point body condition score analyzing weight loss, decrease in body temperature, respiratory distress, hampered mobility and hunched posture. Experimental endpoint was defined as five days post-infection for mice not reaching clinical endpoint. For CFU/mL enumeration, animals were infected as described above and euthanized 6 h post-infection, and blood was collected into sterile 2 ml heparinized tubes (BD Scientific) serially diluted in PBS and plated onto solid LB. Plates were incubated overnight at 37° C., and colonies were quantified to determine bacterial load.
This was directly compared to the activity of P35 and P36 in this model (all administered at 10 mg/kg) in combination with novobiocin (50 mg/kg).
For this experiment the same A. baumannii infection model was used, however, endpoint was defined as 6 h post-infection, at which point blood was collected for CFU/mL enumeration (FIG. 2b).

P. aeruginosa (PA01) = test: Checkerboard potentiation assay with novobiocin; assay type: cell-based
Protocol: (§1) Bacterial strains and culture conditions. The following bacterial strains were used within this study; A. baumannii (ATCC 17978), K. pneumoniae (ATCC 43816), K. pneumoniae (ATCC 43816, expressing pGDP2:mcr-1), P. aeruginosa (PA01). Bacterial growth was in cation-adjusted Mueller-Hinton broth (MHB) at 37° C., and inoculum was prepared according to CLSI protocol (CLSI 2015).
(§2) Potentiation assays. Checkerboard analyses were conducted with each drug serially diluted at eight concentrations to create an 8×8 matrix. At least two biological replicates were done for each combination, and the means were used for FIC calculation. The FIC for each drug was calculated by dividing the concentration of the drug in the presence of codrug in a combination for a well showing <10% growth by the MIC for that drug alone. The FIC index (FICI) is the sum of the two FICs, with an FIC index≤0.5 deemed synergistic.
(§3) To probe the spectrum of activity of the present analogs beyond A. baumannii, their interactions with novobiocin were assessed against the high-priority Gram-negative pathogens Klebsiella pneumoniae and P. aeruginosa (FIG. 5).

[2] = HEK293 cytotoxicity assay (Cell Titer Glo); assay type: cell-based; conditions: human
Protocol: Cytotoxicity Assays. HEK293 (ATCC CRL 1573) cells were left to adhere for 18 h at 7.5×10^3 cells per well in DMEM containing 10% FBS and 2 mM L-glutamine. Compound was added directly into the well. After 48 h of treatment Promega Cell Titer Glo 2.0® was added, shaken for 10 min, and luminescence read (Biotek Neo). AC50 values were calculated using a four-parameter logistic curve in GraphPad Prism 9.
Focusing on only the analogs that retained synergistic activity with novobiocin (FICI≤0.5), half-maximal activity (AC50) values were calculated against HEK293 cells using a CellTiter-Glo® based assay to approximate cell viability. […] Specifically, the FICI value for both P35 and P36 was 0.094 against A. baumannii, while their AC50 values were 235 μg/mL and 200 μg/mL, respectively.

LPS from E. coli EH100 = test: BODIPY-Cadaverine LPS displacement assay; assay type: binding; conditions: BODIPY-cadaverine displacement from E. coli EH100 LPS
Protocol: BODIPY-Cadaverine LPS displacement assay. The BODIPY-cadaverine LPS displacement assay was performed as previously described (Wood et al. 2004. Combinatorial Chemistry & High Throughput Screening, 7: 239-49; Klobucar et al. 2021. ACS Chemical Biology, 16: 929-42). A solution of BODIPY-cadaverine (2.25 μM) and LPS from E. coli EH100 (5.25 μM) in Tris-HCl buffer (50 mM, pH 7.4) was prepared. 0.5 μL of compound and 49.5 μL of the Tris-HCl buffer with BODIPY-cadaverine and LPS solution were added to a Corning nonbinding surface black 384-well polystyrene plate. Fluorescence intensity was measured immediately with an excitation wavelength of 580 nm and an emission wavelength of 620 nm. EC50 values were calculated using a three-parameter logistic curve in GraphPad Prism 9.

[3] = tested on: A. baumannii (ATCC 17978); test: Checkerboard potentiation assay with novobiocin; assay type: cell-based; conditions: with novobiocin
Protocol: as §1, §2

HepG2 cells = conditions: human, 72 h
[4] = tested on: K. pneumoniae (ATCC 43816); test: Checkerboard potentiation assay with novobiocin; assay type: cell-based
Protocol: as §1, §2, §3

in vivo = conditions: female, C57BL/6, mouse, plasma, iv, 1 mg/kg
Protocol: (§4) Plasma samples were taken from 3 mice per time point (5, 15, 30 min; 1, 2, 4, 6 and 8 h post-dose). An aliquot of 2 μL sample was protein precipitated with 60 μL methanol, the mixture was vortex-mixed well and centrifuged at 13000 rpm for 10 min at 4° C. 2 μL supernatant was injected for LC-MS/MS analysis. The mean plasma concentration and the standard deviation from all 3 animals within each time point were calculated. PK parameters were calculated with a non-compartmental analysis. The mean plasma concentrations from all 3 mice at each time point were used in the calculations.

human red blood cells = test: Hemolysis in human blood; conditions: 100 μM, 45 min, 37° C.
[5] = Pharmacokinetic analysis after single intravenous dose
Protocol: as §4

A. baumannii ATCC 17978 [6] = conditions: murine systemic A. baumannii infection, Stokes et al. 2017; cited from earlier work
in vitro = conditions: human

N=C(N)c1ccc(OCCN(CCOc2ccc(C(=N)N)cc2)Cc2ccccc2)cc1 [Analog P36]
Animals rescued in combination with novobiocin (A. baumannii ATCC 17978 [1]): 80%
FICI PA (P. aeruginosa (PA01)): 0.5
IC50 at 48 h ([2]; HEK293T Cytotoxicity (IC50, μg/mL)): 200 µg/mL
LPS Displacement (EC50, μg/mL) (LPS from E. coli EH100): 165.9 µg/mL
FICI AB [3]: 0.094

CO[C@@H]1[C@@H](OC(N)=O)[C@@H](O)[C@H](Oc2ccc3c(O)c(NC(=O)c4ccc(O)c(CC=C(C)C)c4)c(=O)oc3c2C)OC1(C)C [novobiocin, reference compound]
Impact on blood CFU/mL, treatment alone (A. baumannii ATCC 17978 [1]; alone, 6 h post-infection, compared to control-treated animals): no significant impact

N=C(N)c1ccc(OCCCCCOc2ccc(C(=N)N)cc2)cc1 [Pentamidine, pentamidine, reference compound]
AC50 (HepG2 cells): > 150 µM
Reduction in blood CFU/mL in combination with novobiocin (A. baumannii ATCC 17978 [1]; 10 mg/kg + 50 mg/kg novobiocin, 6 h post-infection): 2.08 log10
Animals rescued in combination with novobiocin (A. baumannii ATCC 17978 [1]): 100%
FICI PA (P. aeruginosa (PA01)): 0.75
FICI KP [4]: 0.375
AUC(0-inf) (in vivo): 119 ng·h/mL
AUC(0-t) (in vivo): 116 ng·h/mL
C0 (in vivo): 1260 ng/mL
MRT inf (in vivo): 24.7 min
MRT last (in vivo): 13.7 min
Vd (in vivo): 3.45 L/kg
clearance (in vivo): 140 mL/min/kg
half-life (in vivo): 118 min
Hemolysis of human blood (human red blood cells): Neither compound was hemolytic
Adverse effects after single intravenous dose ([5]; female C57BL/6 mice, 1 mg/kg i.v. in water): no adverse effects
AUCExtra (%) ([5]; mouse, 1 mg/kg IV): 2.76%
AUMCExtra (%) ([5]; mouse, 1 mg/kg IV): 45.8%
Tlast ([5]; mouse, 1 mg/kg IV): 4.00 h
IC50 at 48 h ([2]; HEK293 cells (ATCC CRL 1573), 48 h treatment, Cell Titer Glo, called AC50 in the text, read-out: HEK293T Cytotoxicity (IC50, μg/mL)): 73 µg/mL
Animals rescued in combination with novobiocin (previous work) (A. baumannii ATCC 17978 [6]): 100%
LPS Displacement (EC50, μg/mL) (LPS from E. coli EH100): 231 µg/mL
FICI AB [3]: 0.25
AC50 at 72 h (in vitro; HepG2 viability / cell cycle arrest AC50, HepG2, 72 h incubation): < 0.293 µM
AC50 at 72 h (in vitro; Nuclear Size AC50 (μM)): 2.28 µM
AC50 at 72 h (in vitro; Phospholipidosis AC50 (μM)): > 150 µM
